{
  "source": "the supplement of paper PMC10307832",
  "assay_in_all_cases": "relative viability (nuclei count vs DMSO), 5 days (fraction); higher = more cells survive",
  "key": {"[1]": {"system": "PC-14", "method_in_brief": "(§1)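 Nuclei were stained with Hoechst during a one-step fixation (final 0.05% Triton X-100, 1% formaldehyde, 1 ug/ml Hoechst) carried out 5 days after dosing, then counted on 4× images. The cells, lung cancer lines in 1536-well plates, had been dosed by pin tool the day after seeding with one drug alone or a fixed anchor-drug dose plus five library-drug doses (not always all listed) in √10 steps. Relative viability is the nuclei count in treated wells divided by that in vehicle wells, and each value is the median of duplicate plates.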"}, "[2]": {"system": "NCI-H2405", "method_in_brief": "as §1"}, "[3]": {"system": "NCI-H322M", "method_in_brief": "as §1"}, "[4]": {"system": "NCI-H596", "method_in_brief": "as §1"}, "[5]": {"system": "NCI-H520", "method_in_brief": "as §1"}, "[6]": {"system": "EPLC-272H", "method_in_brief": "as §1"}, "[7]": {"system": "NCI-H3122", "method_in_brief": "as §1"}, "[8]": {"system": "ABC-1", "method_in_brief": "as §1"}, "[9]": {"system": "HCC-827", "method_in_brief": "as §1"}, "[10]": {"system": "NCI-H358", "method_in_brief": "as §1"}, "[11]": {"system": "NCI-H1792", "method_in_brief": "as §1"}, "[12]": {"system": "NCI-H647", "method_in_brief": "as §1"}, "[13]": {"system": "HOP-62", "method_in_brief": "as §1"}, "[14]": {"system": "NCI-H1355", "method_in_brief": "as §1"}, "[15]": {"system": "NCI-H1666", "method_in_brief": "as §1"}, "[16]": {"system": "LU99A", "method_in_brief": "as §1"}, "[17]": {"system": "NCI-H838", "method_in_brief": "as §1"}, "[18]": {"system": "UMC-11", "method_in_brief": "as §1"}, "[19]": {"system": "NCI-H23", "method_in_brief": "as §1"}, "[20]": {"system": "NCI-H2170", "method_in_brief": "as §1"}, "[21]": {"system": "NCI-H727", "method_in_brief": "as §1"}, "[22]": {"system": "NCI-H1975", "method_in_brief": "as §1"}, "[23]": {"system": "BEN", "method_in_brief": "as §1"}},
  "data": [
    {"compound": "Cc1cnc(-c2cnc(NCCNc3ccc(C#N)cn3)nc2-c2ccc(Cl)cc2Cl)[nH]1", "note": "+ Cc1nc(Nc2ncc(C(=O)Nc3c(C)cccc3Cl)s2)cc(N2CCN(CCO)CC2)n1 [Dasatinib] (partner 0.075 µM)", "values": [
      {"measurement": "relative viability", "setting": "[1]; first compound 0.08 µM", "result": 0.325},
      {"measurement": "relative viability", "setting": "[1]; first compound 0.253 µM", "result": 0.226},
      {"measurement": "relative viability", "setting": "[1]; first compound 2.53 µM", "result": 0.172},
      {"measurement": "relative viability", "setting": "[2]; first compound 0.08 µM", "result": 0.215},
      {"measurement": "relative viability", "setting": "[2]; first compound 0.253 µM", "result": 0.223},
      {"measurement": "relative viability", "setting": "[2]; first compound 0.8 µM", "result": 0.223},
      {"measurement": "relative viability", "setting": "[2]; first compound 2.53 µM", "result": 0.195},
      {"measurement": "relative viability", "setting": "[3]; first compound 0.08 µM", "result": 0.246},
      {"measurement": "relative viability", "setting": "[3]; first compound 0.253 µM", "result": 0.281},
      {"measurement": "relative viability", "setting": "[3]; first compound 0.8 µM", "result": 0.248},
      {"measurement": "relative viability", "setting": "[3]; first compound 2.53 µM", "result": 0.274},
      {"measurement": "relative viability", "setting": "[4]; first compound 0.08 µM", "result": 0.601},
      {"measurement": "relative viability", "setting": "[4]; first compound 0.253 µM", "result": 0.656},
      {"measurement": "relative viability", "setting": "[4]; first compound 0.8 µM", "result": 0.624},
      {"measurement": "relative viability", "setting": "[4]; first compound 2.53 µM", "result": 0.607},
      {"measurement": "relative viability", "setting": "[5]; first compound 0.08 µM", "result": 0.219},
      {"measurement": "relative viability", "setting": "[5]; first compound 0.253 µM", "result": 0.186},
      {"measurement": "relative viability", "setting": "[5]; first compound 0.8 µM", "result": 0.245},
      {"measurement": "relative viability", "setting": "[5]; first compound 2.53 µM", "result": 0.299},
      {"measurement": "relative viability", "setting": "[6]; first compound 0.253 µM", "result": 0.374},
      {"measurement": "relative viability", "setting": "[6]; first compound 0.8 µM", "result": 0.409},
      {"measurement": "relative viability", "setting": "[6]; first compound 2.53 µM", "result": 0.397},
      {"measurement": "relative viability", "setting": "[7]; first compound 0.08 µM", "result": 0.859},
      {"measurement": "relative viability", "setting": "[7]; first compound 0.8 µM", "result": 0.714},
      {"measurement": "relative viability", "setting": "[7]; first compound 2.53 µM", "result": 0.528},
      {"measurement": "relative viability", "setting": "[8]; first compound 0.08 µM", "result": 0.553},
      {"measurement": "relative viability", "setting": "[8]; first compound 0.8 µM", "result": 0.476},
      {"measurement": "relative viability", "setting": "[8]; first compound 2.53 µM", "result": 0.417},
      {"measurement": "relative viability", "setting": "[9]; first compound 0.08 µM", "result": 0.371},
      {"measurement": "relative viability", "setting": "[9]; first compound 0.8 µM", "result": 0.291},
      {"measurement": "relative viability", "setting": "[9]; first compound 2.53 µM", "result": 0.318},
      {"measurement": "relative viability", "setting": "[10]; first compound 0.08 µM", "result": 0.157},
      {"measurement": "relative viability", "setting": "[10]; first compound 0.253 µM", "result": 0.17},
      {"measurement": "relative viability", "setting": "[10]; first compound 0.8 µM", "result": 0.207},
      {"measurement": "relative viability", "setting": "[10]; first compound 2.53 µM", "result": 0.189},
      {"measurement": "relative viability", "setting": "[11]; first compound 0.08 µM", "result": 0.998},
      {"measurement": "relative viability", "setting": "[11]; first compound 0.253 µM", "result": 0.777},
      {"measurement": "relative viability", "setting": "[11]; first compound 0.8 µM", "result": 0.772},
      {"measurement": "relative viability", "setting": "[11]; first compound 2.53 µM", "result": 0.762},
      {"measurement": "relative viability", "setting": "[12]; first compound 0.08 µM", "result": 0.229},
      {"measurement": "relative viability", "setting": "[12]; first compound 0.253 µM", "result": 0.197},
      {"measurement": "relative viability", "setting": "[12]; first compound 0.8 µM", "result": 0.179},
      {"measurement": "relative viability", "setting": "[12]; first compound 2.53 µM", "result": 0.223},
      {"measurement": "relative viability", "setting": "[13]; first compound 0.08 µM", "result": 0.67},
      {"measurement": "relative viability", "setting": "[13]; first compound 0.253 µM", "result": 0.668},
      {"measurement": "relative viability", "setting": "[13]; first compound 0.8 µM", "result": 0.709},
      {"measurement": "relative viability", "setting": "[13]; first compound 2.53 µM", "result": 0.749},
      {"measurement": "relative viability", "setting": "[14]; first compound 0.08 µM", "result": 0.749},
      {"measurement": "relative viability", "setting": "[14]; first compound 0.253 µM", "result": 0.664},
      {"measurement": "relative viability", "setting": "[14]; first compound 0.8 µM", "result": 0.746},
      {"measurement": "relative viability", "setting": "[14]; first compound 2.53 µM", "result": 0.689},
      {"measurement": "relative viability", "setting": "[15]; first compound 0.08 µM", "result": 0.897},
      {"measurement": "relative viability", "setting": "[15]; first compound 0.253 µM", "result": 0.671},
      {"measurement": "relative viability", "setting": "[15]; first compound 0.8 µM", "result": 0.845},
      {"measurement": "relative viability", "setting": "[15]; first compound 2.53 µM", "result": 0.7},
      {"measurement": "relative viability", "setting": "[16]; first compound 0.08 µM", "result": 0.507},
      {"measurement": "relative viability", "setting": "[16]; first compound 0.253 µM", "result": 0.487},
      {"measurement": "relative viability", "setting": "[16]; first compound 0.8 µM", "result": 0.528},
      {"measurement": "relative viability", "setting": "[16]; first compound 2.53 µM", "result": 0.643},
      {"measurement": "relative viability", "setting": "[17]; first compound 0.08 µM", "result": 0.276},
      {"measurement": "relative viability", "setting": "[17]; first compound 0.253 µM", "result": 0.307},
      {"measurement": "relative viability", "setting": "[17]; first compound 0.8 µM", "result": 0.306},
      {"measurement": "relative viability", "setting": "[17]; first compound 2.53 µM", "result": 0.363},
      {"measurement": "relative viability", "setting": "[18]; first compound 0.08 µM", "result": 0.515},
      {"measurement": "relative viability", "setting": "[18]; first compound 0.253 µM", "result": 0.542},
      {"measurement": "relative viability", "setting": "[18]; first compound 0.8 µM", "result": 0.498},
      {"measurement": "relative viability", "setting": "[18]; first compound 2.53 µM", "result": 0.527},
      {"measurement": "relative viability", "setting": "[19]; first compound 0.08 µM", "result": 0.879},
      {"measurement": "relative viability", "setting": "[19]; first compound 0.253 µM", "result": 0.751},
      {"measurement": "relative viability", "setting": "[19]; first compound 0.8 µM", "result": 0.871},
      {"measurement": "relative viability", "setting": "[19]; first compound 2.53 µM", "result": 0.713},
      {"measurement": "relative viability", "setting": "[20]; first compound 0.08 µM", "result": 0.556},
      {"measurement": "relative viability", "setting": "[20]; first compound 0.253 µM", "result": 0.345},
      {"measurement": "relative viability", "setting": "[20]; first compound 0.8 µM", "result": 0.576},
      {"measurement": "relative viability", "setting": "[20]; first compound 2.53 µM", "result": 0.487},
      {"measurement": "relative viability", "setting": "[21]; first compound 0.08 µM", "result": 0.452},
      {"measurement": "relative viability", "setting": "[21]; first compound 0.253 µM", "result": 0.358},
      {"measurement": "relative viability", "setting": "[21]; first compound 0.8 µM", "result": 0.339},
      {"measurement": "relative viability", "setting": "[21]; first compound 2.53 µM", "result": 0.54},
      {"measurement": "relative viability", "setting": "[22]; first compound 0.08 µM", "result": 0.427},
      {"measurement": "relative viability", "setting": "[22]; first compound 0.253 µM", "result": 0.336},
      {"measurement": "relative viability", "setting": "[22]; first compound 0.8 µM", "result": 0.282},
      {"measurement": "relative viability", "setting": "[22]; first compound 2.53 µM", "result": 0.241},
      {"measurement": "relative viability", "setting": "[23]; first compound 0.08 µM", "result": 0.332},
      {"measurement": "relative viability", "setting": "[23]; first compound 0.253 µM", "result": 0.364},
      {"measurement": "relative viability", "setting": "[23]; first compound 0.8 µM", "result": 0.291},
      {"measurement": "relative viability", "setting": "[23]; first compound 2.53 µM", "result": 0.351}
    ]}
  ]
}
